Literature values as cited in patent US20160082021A1, “PHARMACEUTICAL COMPOSITION OF DOXYCYCLINE WITH REDUCED FOOD EFFECT” (SUN PHARMACEUTICAL INDUSTRIES LIMITED, priority 2014, published 2016).

Conditions: oral versus intravenous doses

C[C@H]1c2cccc(O)c2C(=O)C2=C(O)[C@]3(O)C(=O)C(C(N)=O)=C(O)[C@@H](N(C)C)[C@@H]3[C@@H](O)[C@@H]21 [doxycycline]
absorption for oral administration: 73-77%
